The values below come from US20110178104A1, “Anti-Heparin Compounds” (POLYMEDIX INC., priority 2010, published 2011).

Converted amounts (≈) assume the structure as drawn. “And” between values parts separate entries of the source, which are not always exact repeats. Identical values can stand only once. A value given as a limit tells only on which side of the number the result lay.

In one assay the test system is Unfractionated heparin. Kind of assay: aPTT clotting assay, UFH 0.4 U/mL in plasma (Example 10). The format is biochemical. The note with it: unfractionated heparin 0.4 U/mL in plasma; aPTT clotting. The method, then:
aPTT clotting Assay: Unfractionated heparin was mixed with plasma at a final concentration of 0.4 U/mL (or concentration which increases aPTT time to between 120 and 300 seconds). […] The ACL Elite Hemostasis analyzer (Beckman Coulter™) was used to add aPTT reagent (HemosIL SynthASil) to supplemented plasma. Clotting was initiated by addition of CaCl2 and time to clot was recorded.

The subject of another assay is fondaparinux. Kind of assay: FXa amidolytic assay (Example 10), fondaparinux. The settings on record: read-out: Fondap FXa EC50; fondaparinux 0.02 μg/mL; human antithrombin, bovine Factor Xa.
In the next assay the test system is UFH. Put plainly: FXa amidolytic assay (Example 10), UFH. The settings on record: read-out: Heparin FXa uM EC50; UFH 0.03 units/mL; human antithrombin, bovine Factor Xa.
The next assay has as its system tinzaparin. Kind of assay: FXa amidolytic assay (Example 10), tinzaparin. The note with it: read-out: Tinzap FXa EC50; tinzaparin 0.1 ug/ml; human antithrombin, bovine Factor Xa.
In another assay the test system is enoxaparin. Kind of assay: FXa amidolytic assay (Example 10), enoxaparin. The note with it: read-out: Enox FXa EC50; enoxaparin 0.1 ug/ml; human antithrombin, bovine Factor Xa.
Assay [1] has as its system isolated human erythrocytes. Kind of assay: cells. The note with it: Homo sapiens, Erythrocyte, 1 h, human RBC, 1 hour at 37° C.; read-out: Hemolysis EC50. Format: cell-based. Here is the method: Hemolysis assay: Cytotoxicity was also evaluated in a hemolysis assay using isolated human erythrocytes. Pooled whole human blood was centrifuged to separate the red blood cells (RBC). The isolated RBCs were rinsed and diluted in Tris-buffered saline (TBS buffer, pH 7.4) to obtain a 0.22% RBC stock suspension. Serial two-fold dilutions of test agent were assayed over a concentration range of 1000 to 0.48 μg/ml with shaking for 1 hour at 37° C. At the conclusion of the incubation time, samples were centrifuged and 30 μl of the supernatant was added to 100 μl H2O. OD405 measurements were read for hemoglobin concentration. The bee venom peptide melittin was used as a positive control. EC50 values were determined using a four parameter logistic equation: Y=Bottom+(Top-Bottom)/(1+10̂((LogEC50-X)*HillSlope)).

A word on the EC50: it is the concentration giving half of the maximal effect.

Method for enoxaparin: (§1) Two μl of test agent are added (range between 0.01 and 23 ug/ml) and incubated for 5 minutes at 23° C. Bovine Factor Xa was added to a final concentration of 0.636 nkat/mL and incubated for a further 10 minutes at 23° C.
Method for fondaparinux: as §1
Method for tinzaparin: as §1

For `COc1ccc(NC(=O)[C@@H](CCCNC(=N)N)NC(=O)c2cc(NC(=O)[C@@H](CCCNC(=N)N)NC(=O)c3cc(NC(=O)[C@@H](CCCNC(N)=O)NC(=O)c4cc(NC(=O)[C@H](N)CCCNC(=N)N)ccc4OC)ccc3OC)ccc2OC)cc1C(N)=O` [Compound 219], the half-maximal effective concentration (EC50) was found to be 1170 nM with Unfractionated heparin; 731 nM in the assay on fondaparinux; 0.153 µM in the assay on UFH; 187 nM with tinzaparin; 95 nM in the assay on enoxaparin.

Consider `COc1ccc(NC(=O)[C@H](CCCCCN)NC(=O)c2cc(NC(=O)[C@H](CCCCCN)NC(=O)c3cc(NC(=O)[C@H](CCCCCN)NC(=O)c4cc(NC(=O)[C@@H](N)CCCCCN)ccc4OC)ccc3OC)ccc2OC)cc1C(N)=O` [Compound 236], for which the 50% effective concentration (EC50) in the assay with Unfractionated heparin was 1930 nM; with fondaparinux, > 12600 nM; in the assay with UFH, 0.364 µM; with tinzaparin, 396 nM; in the assay on enoxaparin it was 99 nM.

For the compound `COc1ccc(C(=O)N[C@@H](CCCCN)C(=O)Nc2ccc(OC)c(C(=O)N[C@@H](CCCCN)C(=O)Nc3ccc(OC)c(C(=O)N[C@@H](CCCCN)C(=O)Nc4ccc(OC)c(C(N)=O)c4)c3)c2)cc1NC(=O)[C@@H](N)CCCCN` [Compound 237], the 50% effective concentration (EC50) is 1140 nM in the assay on Unfractionated heparin; 3620 nM and 3730 nM in the assay with fondaparinux; 0.199 µM in the assay on UFH; 109 nM and 121 nM in the assay on tinzaparin; 177 nM and 341 nM in the assay with enoxaparin.

In the case of `COc1ccc(NC(=O)[C@@H](CCCNC(=N)N)NC(=O)c2cc(NC(=O)[C@@H](CCCNC(=N)N)NC(=O)c3cc(NC(=O)[C@@H](CCCNC(=N)N)NC(=O)c4cc(NC(C)=O)ccc4OC)ccc3OCC(=O)O)ccc2OC)cc1C(=O)N[C@H](Cc1c[nH]c2ccccc12)C(N)=O` [Compound 308], the EC50 in the assay on Unfractionated heparin is > 10000 nM; in assay [1], ~500 µg/mL (≈ 369 µM); in the assay with fondaparinux it was 192 nM; in the assay on tinzaparin, 136 nM; in the assay on enoxaparin, 157 nM.

For the compound `COc1ccc(NC(=O)[C@H](CCCCN)NC(=O)c2cc(NC(=O)[C@H](CCCCN)NC(=O)c3cc(NC(=O)[C@H](CCC(=O)O)NC(=O)c4cc(NC(=O)[C@@H](N)CCCCN)ccc4OC)ccc3OC)ccc2OC)cc1C(N)=O` [Compound 317], the EC50 with Unfractionated heparin was 1610 nM; in assay [1], > 1000 µg/mL; in the assay on fondaparinux it was 873 nM; in the assay on tinzaparin, 178 nM; in the assay with enoxaparin, 293 nM.

As to `COc1ccc(NC(=O)[C@@H](CCCNC(=N)N)NC(=O)c2cc(NC(=O)[C@@H](CCCNC(=N)N)NC(=O)c3cc(NC(=O)[C@@H](CCC(=O)O)NC(=O)c4cc(NC(=O)[C@H](N)CCCNC(=N)N)ccc4OC)ccc3OC)ccc2OC)cc1C(N)=O` [Compound 321], the EC50 was 1820 nM in the assay with Unfractionated heparin; > 1000 µg/mL in assay [1]; 2690 nM in the assay on fondaparinux; 225 nM with tinzaparin; 441 nM in the assay with enoxaparin.

On to `COc1ccc(NC(=O)[C@H](CCCNC(=N)N)NC(=O)c2cc(NC(=O)[C@H](CCCNC(=N)N)NC(=O)c3cc(NC(=O)[C@H](CCC(=O)O)NC(=O)c4cc(NC(=O)[C@@H](N)CCCNC(=N)N)ccc4OC)ccc3OC)ccc2OC)cc1C(N)=O` [Compound 325], for which the 50% effective concentration (EC50) in the assay with Unfractionated heparin was 2700 nM; in assay [1], > 1000 µg/mL; in the assay with fondaparinux it was 2230 nM; with tinzaparin, 213 nM; in the assay on enoxaparin it was 505 nM.

Regarding `COc1ccc(NC(=O)[C@H](CCCCN)NC(=O)c2cc(NC(=O)[C@H](CCCCN)NC(=O)c3cc(NC(=O)[C@H](CCCCN)NC(=O)c4cc(NC(=O)[C@@H](N)Cc5c[nH]c6ccccc56)ccc4OC)ccc3OC)ccc2OCC(=O)O)cc1C(=O)N[C@@H](Cc1c[nH]c2ccccc12)C(N)=O` [Compound 334], the EC50 was > 10000 nM with Unfractionated heparin; ~15 µg/mL (≈ 10.6 µM) in assay [1]; 224 nM in the assay with fondaparinux; 281 nM in the assay on tinzaparin; 249 nM with enoxaparin.

As to `CNCNC(=O)c1cccc(C(=O)N[C@H]2CC[C@H](NC(=O)c3cc(C(=O)N[C@H]4CC[C@H](NC(=O)c5cccc(C(=O)NCCN)c5)CC4)c(OC)cc3OC)CC2)c1` [Compound 366], the concentration for a half-maximal effect (EC50) was > 10000 nM with Unfractionated heparin; > 10000 nM with fondaparinux; 15.5 µM in the assay on UFH; > 5000 nM with tinzaparin; > 5000 nM with enoxaparin.

`COc1cc(OC)c(C(=O)N[C@H]2CC[C@@H](NC(=O)c3cc(C(=O)NCCN)c(OCCCCCN)cc3OCCCCCN)CC2)cc1C(=O)N[C@H]1CC[C@@H](NC(=O)c2cc(C(=O)NCCN)c(OCCCCCN)cc2OCCCCCN)CC1` [Compound 367]: the concentration for a half-maximal effect (EC50) with Unfractionated heparin amounted to 1270 nM; in the assay with fondaparinux, 514 nM; with UFH, 0.085 µM; with tinzaparin it was 106 nM; in the assay with enoxaparin, 42 nM.

In the case of `NCCCC[C@H](NC(=O)c1cccc(NC(=O)[C@H](CCCCN)NC(=O)c2cccc(NC(=O)[C@H](CCCCN)NC(=O)c3cccc(NC(=O)[C@@H](N)CCCCN)c3)c2)c1)C(=O)Nc1cccc(C(N)=O)c1` [Compound 368], the concentration for a half-maximal effect (EC50) is 9250 nM with Unfractionated heparin; > 10000 nM in the assay on fondaparinux; 3.69 µM with UFH; 3390 nM with tinzaparin; 11000 nM with enoxaparin.

For the compound `COc1ccc(NC(=O)[C@@H](CCCNC(=N)N)NC(=O)c2cc(NC(=O)[C@@H](CCCNC(N)=O)NC(=O)c3cc(NC(=O)[C@@H](CCCNC(N)=O)NC(=O)c4cc(NC(=O)[C@H](N)CCCNC(N)=O)ccc4OC)ccc3OC)ccc2OC)cc1C(N)=O` [Compound 370], the concentration giving a half-maximal response (EC50) with Unfractionated heparin is 1460 nM; in the assay on fondaparinux, > 10000 nM; in the assay on UFH, 12.5 µM; with tinzaparin it was 259 nM; with enoxaparin it was 463 nM.

Regarding `COc1ccc(NC(=O)[C@@H](CCCNC(N)=O)NC(=O)c2cc(NC(=O)[C@@H](CCCNC(=N)N)NC(=O)c3cc(NC(=O)[C@@H](CCCNC(N)=O)NC(=O)c4cc(NC(=O)[C@H](N)CCCNC(N)=O)ccc4OC)ccc3OC)ccc2OC)cc1C(N)=O` [Compound 371], the half-maximal effective concentration (EC50) is 3260 nM in the assay on Unfractionated heparin; > 10000 nM in the assay on fondaparinux; > 10 µM in the assay on UFH; 197 nM in the assay on tinzaparin; 252 nM with enoxaparin.

`COc1ccc(NC(=O)[C@@H](CCCNC(N)=O)NC(=O)c2cc(NC(=O)[C@@H](CCCNC(N)=O)NC(=O)c3cc(NC(=O)[C@@H](CCCNC(=N)N)NC(=O)c4cc(NC(=O)[C@H](N)CCCNC(N)=O)ccc4OC)ccc3OC)ccc2OC)cc1C(N)=O` [Compound 372]: the EC50 in the assay with Unfractionated heparin was 2970 nM; in the assay with fondaparinux, 544 nM; in the assay with UFH it was > 10 µM; with tinzaparin, 150 nM; in the assay with enoxaparin, 225 nM.

As to `COc1ccc(NC(=O)[C@@H](CCCNC(N)=O)NC(=O)c2cc(NC(=O)[C@@H](CCCNC(N)=O)NC(=O)c3cc(NC(=O)[C@@H](CCCNC(N)=O)NC(=O)c4cc(NC(=O)[C@H](N)CCCNC(=N)N)ccc4OC)ccc3OC)ccc2OC)cc1C(N)=O` [Compound 373], the EC50 in the assay on Unfractionated heparin is 2360 nM; in the assay with fondaparinux, > 10000 nM; with UFH it was > 10 µM; in the assay with tinzaparin it was 123 nM; with enoxaparin, 123 nM.

For `COc1ccc(NC(=O)[C@@H](CCCNC(=N)N)NC(=O)c2cc(NC(=O)[C@@H](CCCNC(=N)N)NC(=O)c3cc(NC(=O)[C@@H](CCCNC(N)=O)NC(=O)c4cc(NC(=O)[C@H](N)CCCNC(N)=O)ccc4OC)ccc3OC)ccc2OC)cc1C(N)=O` [Compound 374], the EC50 with Unfractionated heparin came out at 2420 nM; in the assay with fondaparinux it was 1820 nM; in the assay on UFH, 0.677 µM; in the assay with tinzaparin it was 114 nM; with enoxaparin, 157 nM.

As to `COc1ccc(NC(=O)[C@@H](CCCNC(N)=O)NC(=O)c2cc(NC(=O)[C@@H](CCCNC(N)=O)NC(=O)c3cc(NC(=O)[C@@H](CCCNC(=N)N)NC(=O)c4cc(NC(=O)[C@H](N)CCCNC(=N)N)ccc4OC)ccc3OC)ccc2OC)cc1C(N)=O` [Compound 375], the EC50 is 2690 nM in the assay on Unfractionated heparin; 1260 nM in the assay on fondaparinux; 0.681 µM in the assay with UFH; 76 nM with tinzaparin; 113 nM with enoxaparin.

As for `COc1ccc(NC(=O)[C@@H](CCCNC(=N)N)NC(=O)c2cc(NC(=O)[C@@H](CCCNC(N)=O)NC(=O)c3cc(NC(=O)[C@@H](CCCNC(N)=O)NC(=O)c4cc(NC(=O)[C@H](N)CCCNC(=N)N)ccc4OC)ccc3OC)ccc2OC)cc1C(N)=O` [Compound 376], the EC50 in the assay with Unfractionated heparin was determined as 1890 nM; with fondaparinux it was 1670 nM; in the assay with UFH, 0.416 µM; in the assay on tinzaparin, 114 nM; in the assay with enoxaparin, 191 nM.

In the case of `COc1cc(OC)c(C(=O)NCCNC(=O)c2cc(C(=O)NCCNC(=O)c3cc(C(=O)NCCN)c(OC)cc3OC)c(OC)cc2OC)cc1C(=O)NCCN` [Compound 386], the EC50 in the assay on fondaparinux is > 10000 nM; with UFH, 19.4 µM; in the assay on tinzaparin, 7240 nM; in the assay on enoxaparin, > 5000 nM.
